Source: patent publication US12104178B2, “DHFR tunable protein regulation” (Obsidian Therapeutics, Inc., priority 2017, dated 2024)
Blank lines part the entries; values can stand above or below the molecule they belong to.

Key:
[1] = system: T cells; test: IL12/IL2 effect on T cell expansion and IFNgamma positive CD4+/CD8+ T cells; assay type: cell-based, human
Description: The goal of the study was to determine the T cell stimulation regimen and dose of IL12 needed to maximize T cell persistence and T cell differentiation in vitro, to mimic an in vivo adoptive cell transfer therapy regimen. The study recapitulates the design of the adoptive cell therapy regimen wherein the T cells were initially exposed to the antigen in vitro which results in activation followed by a resting phase and finally in vivo transfer where the T cells encounter the antigen again. T cells were stimulated CD3/CD28 beads or soluble CD3/CD28 on day 0 and the CD3/CD28 stimulus was washed off at the end of 48 hours. Cells were treated with a dose of IL12 ranging from 0.01-1000 ng/mL. On day 9, the Th1 phenotype of the cells was evaluated by examining the frequency of IFNgamma positive CD4+ cells and CD8+ cells. On day 14, cells were divided into two groups—one group received a second CD3/CD28 stimulation and a second group that was not stimulated. On day 16, the Th1 phenotype was evaluated in both groups using FACS.
To test the requirement of IL2 and IL12 for T cells expansion and activation, T cells were stimulated with soluble CD3/CD28, CD3/CD28 Dynabeads or left unstimulated for two days. Each of these groups was further split into two sub groups. One sub group was treated with IL2 and 100 ng/ml of IL12 while the second sub group was treated with IL2 only for the duration of the stimulation. For the soluble CD3/CD28 stimulated cells, a third subgroup that was only treated with 100 ng/ml of IL12 was also included.
The effect of IL12 on T cell activation was measured by determining the frequency of IFNgamma positive CD4+ and CD8+ T cells. IFNg is produced by activated T cells. Three different stimulation protocols were used. In the first protocol, cells were stimulated with CD3/CD28 dynabeads for 2 days, following which the beads were washed off and the cells were treated with varying concentrations of IL12 for 7 days (from day 2 to day 9). At day 9, cells were restimulated with soluble CD3/CD28 and the frequency of IFNgamma positive cells was determined by FACS. […] In the second protocol, following 2 day CD3/CD28 dynabeads stimulation, T cells were maintained in culture for a longer duration of 14 days i.e. from day 2 to day 16. At day 16, cells were restimulated with soluble CD3/CD28. At day 16, the frequency of IFNgamma positive cells was measured. […] In the third protocol, T cells were initially stimulated for 2 days with CD3/CD28 dynabeads and IL2, followed by treatment with IL2 only for 9 days (i.e. from day 2 to day 11), followed by IL12 treatment for 2 to 5 days. In the last two days of the experiment, cells were also restimulated with soluble CD3/CD28. IFNgamma positive CD4 and CD8 cells were measured using FACS. The third protocol mimics the environment that is presented to T cells in adoptive cell therapy, both during in vitro transduction and T cells expansion as well as the in vivo.

[2] = system: Human T cells; test: IL12 induced differentiation of human T cells, IFN gamma / CD3 flow cytometry; assay type: cell-based; conditions: IL12 treated (untreated 0.21)
Protocol: IL12 promotes the differentiation of naïve T cells into Th1 cells which results in the secretion of IFN gamma from T cells. Human T cells were treated with IL12 or left untreated and analyzed by flow cytometry for the expression of IFN gamma and T cell marker CD3.

[3] = system: NK-92 cells; test: NK-92 activation markers with IL12 (Table 83); assay type: cell-based; conditions: IL12 10 ng/ml, 18 h
Protocol: The dependency of the NK-92 cells on cytokines for activation was tested. […] The cells were cultured for 18 hours in the presence of IL12 (10 ng/ml) or varying concentrations of IL15 (100 ng/ml, 20 ng/ml, 4 ng/ml, 0.8 ng/ml, 0.16 ng/ml, 0.032 ng/ml, 0.0064 ng/ml and 0.00128 ng/ml). NK-92 cell activation in response to IL15 and IL12 treatment was evaluated by FACS analysis using a panel of markers whose increased expression is associated with NK activation. These include NKG2D, CD71, CD69; chemokine receptors such as CCR5, CXCR4, and CXCR3, Perforin, Granzyme B and Interferon gamma (IFNg). Prior to FACS analysis for IFNg, cells were cultured for 4 hours with Brefeldin A. NK cells respond to external stimuli such as cytokines in their environment through the phosphorylation of proteins JAK/STAT, ERK, and p38/MAPK pathways which are important for cell activation, signaling and differentiation pathways. The phosphorylation of AKT, STAT3 and STAT5 in response to cytokine addition was measured by FACS. Since phosphorylation events are transient NK-92 cells were treated with the cytokines for 15 or 60 minutes, prior to the analysis.

[4] = system: HEK 293T cells; test: GFP-hDHFR C terminus fusions, MFI (FACS); assay type: cell-based, human; conditions: 1 μM MTX or 50 μM TMP, 48 h
Protocol: DDs may be positioned upstream or downstream of the payload within an SRE. hDHFR mutants generated by structure guided mutagenesis as discussed in example 2 were fused at the C-terminus of GFP to test if the hDHFR mutants can destabilize proteins of interest when fused to the C-terminus of the protein of interest. A linker, GGSGGG (SEQ ID NO. 6413) was placed between GFP and hDHFR and cloned into pLVX.IRES. Puro.
Following the incubation, median fluorescence intensity (MFI) was measured using FACS.

- EC50, IFNgamma positive cells ([1]; first protocol (7 days IL12), CD8 cells): 0.05 ng/mL
- EC50, IFNgamma positive cells ([1]; second protocol (14 days), CD4 cells): 0.012 ng/mL
- EC50, IFNgamma positive cells ([1]; second protocol (14 days), CD8 cells): 0.065 ng/mL
- EC50, IFNgamma positive cells ([1]; third protocol, IL12 final 5 days, CD4 cells): 0.024 ng/mL
- EC50, IFNgamma positive cells ([1]; third protocol, IL12 final 5 days, CD8 cells): 0.04 ng/mL
Molecule: IL12: cytokine added to T cells or NK-92 cells
- Requirement for T cell expansion (FIG. 37A) ([1]; 14 days, CD3/CD28 stimulation): may be dispensable
- IL12 dose causing Th1-skewing and IFN gamma production ([1]; T cells in vitro, day 16): 0.1 ng/mL
- Percentage of IFN gamma positive T cells [2]: 22.3%
- Fold change in MFI vs untreated, CCR5 [3]: 1.60
- Fold change in MFI vs untreated, Granzyme [3]: 1.87
- Fold change in MFI vs untreated, IFNg [3]: 1.74
- Fold change in MFI vs untreated, Perforin [3]: 1.67
- Fold change vs untreated, IFNg (supernatant) [3]: 666.15

B1: OT-hDHFRC-015: GFP-hDHFR (A125F, Y122I) (protein, UniProt P00374 1-187, looked up, variant A125F Y122I)
Dihydrofolate reductase: MVGSLNCIVAVSQNMGIGKNGDLPWPPLRNEFRYFQRMTTTSSVEGKQNLVIMGKKTWFSIPEKNRPLKGRINLVLSRELKEPPQGAHFLSRSLDDALKLTEQPELANKVDMVWIVGGSSVIKEFMNHPGHLKLFVTRIMQDFESDTFFPEIDLEKYKLLPEYPGVLSDVQEEKGIKYKFEVYEKND
modifications: N-terminal GFP fusion
- MFI change over DMSO, GFP-hDHFR C terminus fusion (FIG. 20) [4]: several fold increase in MFI over DMSO with both MTX and TMP
